Here are results for ten compounds from patent US7964531B2, “3-phenoxy-4-pyridazinol derivatives and herbicidal composition containing the same” (Mitsui Chemicals Agro, Inc., priority 2001, dated 2011).

What all share (format): in vivo
Common to all, as to conditions: wettable powder applied 3 days after transplanting, judged after 25 days

One data set has as its system Cyperus serotinus. Description: Test Example 1: herbicidal effects, paddy-field pot test. The procedure: (§1) A paddy soil was filled in 1/10,000 are pot, and seeds of barnyardgrass (Echinochloa oryzicola Vasing.), Scirpus joncoides and annual broad-leaved weeds (Lindernia spp., Rotala indica) which are awaken from dormancy were mixed at the surface layer of 1 cm. Also, tuber of Cyperus serotinus which is germinated was planted, and further seedlings of paddy-field rice at 2.2-leaf stage were transplanted, and they were grown under the flooded condition in a greenhouse. After 3 days from transplanting, a predetermined chemical dosage of the wettable powder prepared in accordance with Preparation example 1 was diluted in water, and the solution was applied to the pot and herbicidal effects and crop injury against transplanted paddy-field rice were judged after 25 days from the treatment. Also, 3-(2-allylphenoxy)-6-chloro-4-methoxypyridazine described in Chemical Pharmaceutical Bulletin, 1972, vol. 20, No. 10, pp. 2191-2203 was used as Comparative compound. Incidentally, herbicidal effects and crop injury against transplanted paddy-field rice were judged by the following judgment standard, and “-” in the table means no test was carried out.
(§2) Judgment Standard • 0: Growth inhibition rate; 0 to 10% • 1: Growth inhibition rate; 11 to 30% • 2: Growth inhibition rate; 31 to 50% • 3: Growth inhibition rate; 51 to 70% • 4: Growth inhibition rate; 71 to 90% • 5: Growth inhibition rate; 91 to 100%.

A further data set concerns Scirpus joncoides. Described as above. On the procedure: as §1, §2
The subject of data set [1] is annual broad-leaved weeds (Lindernia spp., Rotala indica). The description is as above. On the procedure:
as §1, §2

Data set [2] deals with barnyardgrass (Echinochloa oryzicola Vasing.). The description is as above. On the procedure: as §1, §2
For data set [3], the system named is transplanted paddy-field rice. Kind of data set: Test Example 1: crop injury against transplanted paddy-field rice. The procedure: as §1, §2

As for `Cc1ccccc1Oc1nnc(Br)cc1O` [Example 34], the “Herbicidal effects Cyperus serotinus” value with Cyperus serotinus (chemical dosage 10 g/a) and in the data set with Cyperus serotinus (chemical dosage 20 g/a) was 5 (Growth inhibition rate; 91 to 100%) throughout. The “Herbicidal effects Scirpus joncoides” value is listed as 2 (Growth inhibition rate; 31 to 50%) in the data set with Scirpus joncoides (chemical dosage 10 g/a) and 4 (Growth inhibition rate; 71 to 90%) in the data set with Scirpus joncoides (chemical dosage 20 g/a). Also, the entries for the “Herbicidal effects Broad leaf” value in data set [1] (chemical dosage 10 g/a) and in data set [1] (chemical dosage 20 g/a) were 2 (Growth inhibition rate; 31 to 50%) and 4 (Growth inhibition rate; 71 to 90%), respectively. For the same compound, the “Herbicidal effects Barnyard grass” value in data set [2] (chemical dosage 10 g/a) is 1 (Growth inhibition rate; 11 to 30%); in data set [2] (chemical dosage 20 g/a), 2 (Growth inhibition rate; 31 to 50%). For the same compound, the “Crop injury against transplanted rice” value in data set [3] (chemical dosage 10 g/a) and in data set [3] (chemical dosage 20 g/a) was 0 (Growth inhibition rate; 0 to 10%) throughout.
With `Oc1cc(Cl)nnc1Oc1ccccc1F` [Example 49], the “Herbicidal effects Cyperus serotinus” value with Cyperus serotinus (chemical dosage 12.5 g/a) and with Cyperus serotinus (chemical dosage 25 g/a) was 5 (Growth inhibition rate; 91 to 100%) each time. The “Herbicidal effects Scirpus joncoides” value in the data set with Scirpus joncoides (chemical dosage 12.5 g/a) is recorded as 3 (Growth inhibition rate; 51 to 70%); in the data set on Scirpus joncoides (chemical dosage 25 g/a), 4 (Growth inhibition rate; 71 to 90%). The entries for the “Herbicidal effects Broad leaf” value in data set [1] (chemical dosage 12.5 g/a) and in data set [1] (chemical dosage 25 g/a) were 3 (Growth inhibition rate; 51 to 70%) and 5 (Growth inhibition rate; 91 to 100%), respectively. In addition, the “Herbicidal effects Barnyard grass” value in data set [2] (chemical dosage 12.5 g/a) was 1 (Growth inhibition rate; 11 to 30%); in data set [2] (chemical dosage 25 g/a), 2 (Growth inhibition rate; 31 to 50%). For the same compound, the “Crop injury against transplanted rice” value in data set [3] (chemical dosage 12.5 g/a) and in data set [3] (chemical dosage 25 g/a) was 0 (Growth inhibition rate; 0 to 10%) in each case.
As to `Oc1cc(Cl)nnc1Oc1ccccc1Cl` [Example 50], the “Herbicidal effects Cyperus serotinus” value with Cyperus serotinus (chemical dosage 12.5 g/a) and in the data set with Cyperus serotinus (chemical dosage 25 g/a) was 5 (Growth inhibition rate; 91 to 100%) throughout. The “Herbicidal effects Scirpus joncoides” value is recorded as 3 (Growth inhibition rate; 51 to 70%) in the data set on Scirpus joncoides (chemical dosage 12.5 g/a) and 4 (Growth inhibition rate; 71 to 90%) in the data set with Scirpus joncoides (chemical dosage 25 g/a). The “Herbicidal effects Broad leaf” value in data set [1] (chemical dosage 12.5 g/a) and in data set [1] (chemical dosage 25 g/a) was 5 (Growth inhibition rate; 91 to 100%) each time. The “Herbicidal effects Barnyard grass” value in data set [2] (chemical dosage 12.5 g/a) is 2 (Growth inhibition rate; 31 to 50%); in data set [2] (chemical dosage 25 g/a), 3 (Growth inhibition rate; 51 to 70%). For the same compound, the “Crop injury against transplanted rice” value in data set [3] (chemical dosage 12.5 g/a) and in data set [3] (chemical dosage 25 g/a) was 0 (Growth inhibition rate; 0 to 10%) throughout.
Take `Oc1cc(Cl)nnc1Oc1ccccc1Br` [Example 51]: the “Herbicidal effects Cyperus serotinus” value in the data set with Cyperus serotinus (chemical dosage 12.5 g/a) and in the data set with Cyperus serotinus (chemical dosage 25 g/a) was 5 (Growth inhibition rate; 91 to 100%) throughout. The “Herbicidal effects Scirpus joncoides” value is listed as 3 (Growth inhibition rate; 51 to 70%) in the data set with Scirpus joncoides (chemical dosage 12.5 g/a) and 5 (Growth inhibition rate; 91 to 100%) in the data set with Scirpus joncoides (chemical dosage 25 g/a). In addition, the “Herbicidal effects Broad leaf” value is on record as 4 (Growth inhibition rate; 71 to 90%) in data set [1] (chemical dosage 12.5 g/a) and 5 (Growth inhibition rate; 91 to 100%) in data set [1] (chemical dosage 25 g/a). The “Herbicidal effects Barnyard grass” value in data set [2] (chemical dosage 12.5 g/a) and in data set [2] (chemical dosage 25 g/a) was 2 (Growth inhibition rate; 31 to 50%) in each case. Also, the “Crop injury against transplanted rice” value in data set [3] (chemical dosage 12.5 g/a) and in data set [3] (chemical dosage 25 g/a) was 0 (Growth inhibition rate; 0 to 10%) each time.
For `Oc1cc(Cl)nnc1Oc1ccccc1I` [Example 52], the “Herbicidal effects Cyperus serotinus” value in the data set on Cyperus serotinus (chemical dosage 10 g/a) and in the data set on Cyperus serotinus (chemical dosage 20 g/a) was 5 (Growth inhibition rate; 91 to 100%) each time. Besides, the “Herbicidal effects Scirpus joncoides” value in the data set on Scirpus joncoides (chemical dosage 10 g/a) and in the data set on Scirpus joncoides (chemical dosage 20 g/a) was 5 (Growth inhibition rate; 91 to 100%) in each case. The “Herbicidal effects Broad leaf” value in data set [1] (chemical dosage 10 g/a) and in data set [1] (chemical dosage 20 g/a) was 5 (Growth inhibition rate; 91 to 100%) throughout. In addition, the “Herbicidal effects Barnyard grass” value is 3 (Growth inhibition rate; 51 to 70%) in data set [2] (chemical dosage 10 g/a) and 4 (Growth inhibition rate; 71 to 90%) in data set [2] (chemical dosage 20 g/a). Further, the “Crop injury against transplanted rice” value in data set [3] (chemical dosage 10 g/a) and in data set [3] (chemical dosage 20 g/a) was 0 (Growth inhibition rate; 0 to 10%) each time.
Consider `CCc1ccccc1Oc1nnc(Cl)cc1O` [Example 55], for which the “Herbicidal effects Cyperus serotinus” value with Cyperus serotinus (chemical dosage 12.5 g/a) and with Cyperus serotinus (chemical dosage 25 g/a) was 5 (Growth inhibition rate; 91 to 100%) in each case. Further, the “Herbicidal effects Scirpus joncoides” value with Scirpus joncoides (chemical dosage 12.5 g/a) is reported as 3 (Growth inhibition rate; 51 to 70%); in the data set on Scirpus joncoides (chemical dosage 25 g/a) it was 4 (Growth inhibition rate; 71 to 90%). Besides, the “Herbicidal effects Broad leaf” value in data set [1] (chemical dosage 12.5 g/a) and in data set [1] (chemical dosage 25 g/a) was 5 (Growth inhibition rate; 91 to 100%) each time. Moreover, the “Herbicidal effects Barnyard grass” value in data set [2] (chemical dosage 12.5 g/a) and in data set [2] (chemical dosage 25 g/a) was 2 (Growth inhibition rate; 31 to 50%) in each case. Besides, the “Crop injury against transplanted rice” value in data set [3] (chemical dosage 12.5 g/a) and in data set [3] (chemical dosage 25 g/a) was 0 (Growth inhibition rate; 0 to 10%) throughout.
Regarding `CCCc1ccccc1Oc1nnc(Cl)cc1O` [Example 56], the “Herbicidal effects Cyperus serotinus” value with Cyperus serotinus (chemical dosage 12.5 g/a) and in the data set with Cyperus serotinus (chemical dosage 25 g/a) was 4 (Growth inhibition rate; 71 to 90%) throughout. For the same compound, the “Herbicidal effects Scirpus joncoides” value is on record as 2 (Growth inhibition rate; 31 to 50%) in the data set on Scirpus joncoides (chemical dosage 12.5 g/a) and 3 (Growth inhibition rate; 51 to 70%) with Scirpus joncoides (chemical dosage 25 g/a). Also, the “Herbicidal effects Broad leaf” value in data set [1] (chemical dosage 12.5 g/a) is given as 4 (Growth inhibition rate; 71 to 90%); in data set [1] (chemical dosage 25 g/a), 5 (Growth inhibition rate; 91 to 100%). For the same compound, the “Herbicidal effects Barnyard grass” value in data set [2] (chemical dosage 12.5 g/a) and in data set [2] (chemical dosage 25 g/a) was 0 (Growth inhibition rate; 0 to 10%) in each case. The “Crop injury against transplanted rice” value in data set [3] (chemical dosage 12.5 g/a) and in data set [3] (chemical dosage 25 g/a) was 0 (Growth inhibition rate; 0 to 10%) in each case.
On to `CC(C)c1ccccc1Oc1nnc(Cl)cc1O` [Example 57], for which the “Herbicidal effects Cyperus serotinus” value in the data set with Cyperus serotinus (chemical dosage 12.5 g/a) and in the data set with Cyperus serotinus (chemical dosage 25 g/a) was 5 (Growth inhibition rate; 91 to 100%) in each case. Besides, the “Herbicidal effects Scirpus joncoides” value with Scirpus joncoides (chemical dosage 12.5 g/a) is 3 (Growth inhibition rate; 51 to 70%); in the data set on Scirpus joncoides (chemical dosage 25 g/a), 4 (Growth inhibition rate; 71 to 90%). The “Herbicidal effects Broad leaf” value in data set [1] (chemical dosage 12.5 g/a) and in data set [1] (chemical dosage 25 g/a) was 5 (Growth inhibition rate; 91 to 100%) throughout. Further, the “Herbicidal effects Barnyard grass” value in data set [2] (chemical dosage 12.5 g/a) and in data set [2] (chemical dosage 25 g/a) was 2 (Growth inhibition rate; 31 to 50%) in each case. Besides, the “Crop injury against transplanted rice” value in data set [3] (chemical dosage 12.5 g/a) and in data set [3] (chemical dosage 25 g/a) was 0 (Growth inhibition rate; 0 to 10%) throughout.
Take `CC(C)(C)c1ccccc1Oc1nnc(Cl)cc1O` [Example 61]: the “Herbicidal effects Cyperus serotinus” value with Cyperus serotinus (chemical dosage 12.5 g/a) and with Cyperus serotinus (chemical dosage 25 g/a) was 5 (Growth inhibition rate; 91 to 100%) each time. Also, the “Herbicidal effects Scirpus joncoides” value in the data set with Scirpus joncoides (chemical dosage 12.5 g/a) and in the data set on Scirpus joncoides (chemical dosage 25 g/a) was 5 (Growth inhibition rate; 91 to 100%) each time. The “Herbicidal effects Broad leaf” value in data set [1] (chemical dosage 12.5 g/a) and in data set [1] (chemical dosage 25 g/a) was 5 (Growth inhibition rate; 91 to 100%) each time. Further, the “Herbicidal effects Barnyard grass” value in data set [2] (chemical dosage 12.5 g/a) is recorded as 1 (Growth inhibition rate; 11 to 30%); in data set [2] (chemical dosage 25 g/a), 2 (Growth inhibition rate; 31 to 50%). For the same compound, the “Crop injury against transplanted rice” value in data set [3] (chemical dosage 12.5 g/a) and in data set [3] (chemical dosage 25 g/a) was 0 (Growth inhibition rate; 0 to 10%) throughout.
Regarding `CC1CC1c1ccccc1Oc1nnc(Cl)cc1O` (stereo not shown) [Example 72], the figures for the “Herbicidal effects Cyperus serotinus” value in the data set on Cyperus serotinus (chemical dosage 10 g/a) and in the data set on Cyperus serotinus (chemical dosage 20 g/a) were 4 (Growth inhibition rate; 71 to 90%) and 5 (Growth inhibition rate; 91 to 100%), respectively. The “Herbicidal effects Scirpus joncoides” value in the data set on Scirpus joncoides (chemical dosage 10 g/a) and in the data set with Scirpus joncoides (chemical dosage 20 g/a) was 5 (Growth inhibition rate; 91 to 100%) each time. For the same compound, the “Herbicidal effects Broad leaf” value in data set [1] (chemical dosage 10 g/a) and in data set [1] (chemical dosage 20 g/a) was 5 (Growth inhibition rate; 91 to 100%) in each case. For the same compound, the “Herbicidal effects Barnyard grass” value in data set [2] (chemical dosage 10 g/a) and in data set [2] (chemical dosage 20 g/a) was 3 (Growth inhibition rate; 51 to 70%) each time. In addition, the “Crop injury against transplanted rice” value in data set [3] (chemical dosage 10 g/a) and in data set [3] (chemical dosage 20 g/a) was 0 (Growth inhibition rate; 0 to 10%) each time.
